# Results from US12077503B2, “Substituted cyclic amides and their use as herbicides” (FMC CORPORATION, priority 2015, dated 2024).
# How the values were obtained:
# Assay type in all cases: in vivo
# [1] = tested on: barnyardgrass (Echinochloa crus-galli); assay: Test G Post-Emergence Protocol; conditions: Echinochloa crus-galli, post-emergence, 312 h, read-out: Barnyardgrass damage rating
# In short: (§1)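 Scores run 0 (no damage) to 100 (total damage) and were taken 13 days after spraying. Plants had been raised in pots for 8 days under glasshouse control (24/16 °C, 14 h photoperiod, 65% humidity) and then treated at 15.625, 62.5 or 250 g/ha.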
# corn (Zea mays) [2] = assay: Test G Post-Emergence Protocol; conditions: Zea mays, post-emergence, 312 h, read-out: Corn damage rating
# In short: as §1
# [3] = tested on: giant foxtail (Setaria faberi); assay: Test G Post-Emergence Protocol; conditions: Setaria faberi, post-emergence, 312 h, read-out: Foxtail, Giant damage rating
# In short: as §1
# [4] = tested on: velvetleaf (Abutilon theophrasti); assay: Test G Post-Emergence Protocol; conditions: Abutilon theophrasti, post-emergence, 312 h, read-out: Velvetleaf damage rating
# In short: as §1
# [5] = tested on: redroot pigweed (Amaranthus retroflexus); assay: Test G Post-Emergence Protocol; conditions: Amaranthus retroflexus, post-emergence, 312 h, read-out: Pigweed, Redroot damage rating
# In short: as §1
# [6] = tested on: ivy-leaved morning glory (Ipomoea hederacea); assay: Test G Post-Emergence Protocol; conditions: Ipomoea, post-emergence, 312 h, read-out: Morningglory, Ivy-leaved damage rating
# In short: as §1
# [7] = tested on: barnyardgrass (Echinochloa crus-galli); assay: Test G Pre-Emergence Protocol; conditions: Echinochloa crus-galli, pre-emergence, 312 h, evaluated after 13 days
# In short: (§2)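 Under a 24/16° C day/night regime with 14 h light and 65% humidity, sown pots were sprayed after one day with compound (15.625, 62.5 or 250 g/ha; 50:50 acetone/water, 0.5% Tween 20). Damage was assessed visually 13 days later, 0 to 100.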
# corn (Zea mays) [8] = assay: Test G Pre-Emergence Protocol; conditions: Zea mays, pre-emergence, 312 h, evaluated after 13 days
# In short: as §2
# [9] = tested on: giant foxtail (Setaria faberi); assay: Test G Pre-Emergence Protocol; conditions: Setaria faberi, pre-emergence, 312 h, evaluated after 13 days
# In short: as §2
# [10] = tested on: velvetleaf (Abutilon theophrasti); assay: Test G Pre-Emergence Protocol; conditions: Abutilon theophrasti, pre-emergence, 312 h, evaluated after 13 days
# In short: as §2
# [11] = tested on: redroot pigweed (Amaranthus retroflexus); assay: Test G Pre-Emergence Protocol; conditions: Amaranthus retroflexus, pre-emergence, 312 h, evaluated after 13 days
# In short: as §2
# [12] = tested on: ivy-leaved morning glory (Ipomoea hederacea); assay: Test G Pre-Emergence Protocol; conditions: Ipomoea, pre-emergence, 312 h, evaluated after 13 days
# In short: as §2
# [13] = 15.625 g ai/ha, evaluated after 13 days (100=total damage to plant; 0=no damage to plant)
# [14] = 62.5 g ai/ha, evaluated after 13 days, 100=total damage to plant, 0=no damage to plant
# [15] = 250 g ai/ha, evaluated after 13 days, 100=total damage to plant, 0=no damage to plant
smiles,measurement,setting,value
CC(C)Oc1cc(OC(F)(F)F)cc(C2CN(C)C(=O)C2C(=O)Nc2cccc(F)c2F)c1 (stereo not drawn) [Compound 1726],pest or weed control at 15.625 g/ha,[1]; [13],0%
same,pest or weed control at 62.5 g/ha,[1]; [14],30%
same,pest or weed control at 250 g/ha,[1]; [15],70%
same,plant injury at 15.625 g/ha,corn (Zea mays) [2]; [13],10%
same,plant injury at 62.5 g/ha,corn (Zea mays) [2]; [14],30%
same,plant injury at 250 g/ha,corn (Zea mays) [2]; [15],70%
same,pest or weed control at 15.625 g/ha,[3]; [13],0%
same,pest or weed control at 62.5 g/ha,[3]; [14],70%
same,pest or weed control at 250 g/ha,[3]; [15],70%
same,pest or weed control at 15.625 g/ha,[4]; [13],0%
same,pest or weed control at 62.5 g/ha,[4]; [14],0%
same,pest or weed control at 250 g/ha,[4]; [15],20%
same,pest or weed control at 15.625 g/ha,[5]; [13],20%
same,pest or weed control at 62.5 g/ha,[5]; [14],0%
same,pest or weed control at 250 g/ha,[5]; [15],40%
same,pest or weed control at 15.625 g/ha,[6]; [13],10%
same,pest or weed control at 62.5 g/ha,[6]; [14],10%
same,pest or weed control at 250 g/ha,[6]; [15],70%
same,pest or weed control at 15.625 g/ha,"[7]; 15.625 g ai/ha, read-out: Barnyardgrass damage rating (100=total damage to plant; 0=no damage to plant)",0%
same,pest or weed control at 62.5 g/ha,"[7]; 62.5 g ai/ha, 100=total damage to plant, 0=no damage to plant, read-out: Barnyardgrass damage rating",50%
same,pest or weed control at 250 g/ha,"[7]; 250 g ai/ha, read-out: Barnyardgrass damage rating (100=total damage to plant; 0=no damage to plant)",70%
same,plant injury at 15.625 g/ha,"corn (Zea mays) [8]; 15.625 g ai/ha, read-out: Corn damage rating (100=total damage to plant; 0=no damage to plant)",0%
same,plant injury at 62.5 g/ha,"corn (Zea mays) [8]; 62.5 g ai/ha, 100=total damage to plant, 0=no damage to plant, read-out: Corn damage rating",0%
same,plant injury at 250 g/ha,"corn (Zea mays) [8]; 250 g ai/ha, read-out: Corn damage rating (100=total damage to plant; 0=no damage to plant)",30%
same,pest or weed control at 15.625 g/ha,"[9]; 15.625 g ai/ha, read-out: Foxtail, Giant damage rating (100=total damage to plant; 0=no damage to plant)",10%
same,pest or weed control at 62.5 g/ha,"[9]; 62.5 g ai/ha, 100=total damage to plant, 0=no damage to plant, read-out: Foxtail, Giant damage rating",50%
same,pest or weed control at 250 g/ha,"[9]; 250 g ai/ha, read-out: Foxtail, Giant damage rating (100=total damage to plant; 0=no damage to plant)",80%
same,pest or weed control at 15.625 g/ha,"[10]; 15.625 g ai/ha, read-out: Velvetleaf damage rating (100=total damage to plant; 0=no damage to plant)",0%
same,pest or weed control at 62.5 g/ha,"[10]; 62.5 g ai/ha, 100=total damage to plant, 0=no damage to plant, read-out: Velvetleaf damage rating",0%
same,pest or weed control at 250 g/ha,"[10]; 250 g ai/ha, read-out: Velvetleaf damage rating (100=total damage to plant; 0=no damage to plant)",0%
same,pest or weed control at 15.625 g/ha,"[11]; 15.625 g ai/ha, read-out: Pigweed, Redroot damage rating (100=total damage to plant; 0=no damage to plant)",0%
same,pest or weed control at 62.5 g/ha,"[11]; 62.5 g ai/ha, 100=total damage to plant, 0=no damage to plant, read-out: Pigweed, Redroot damage rating",0%
same,pest or weed control at 250 g/ha,"[11]; 250 g ai/ha, read-out: Pigweed, Redroot damage rating (100=total damage to plant; 0=no damage to plant)",10%
same,pest or weed control at 15.625 g/ha,"[12]; 15.625 g ai/ha, read-out: Morningglory, Ivy-leaved damage rating (100=total damage to plant; 0=no damage to plant)",0%
same,pest or weed control at 62.5 g/ha,"[12]; 62.5 g ai/ha, 100=total damage to plant, 0=no damage to plant, read-out: Morningglory, Ivy-leaved damage rating",0%
same,pest or weed control at 250 g/ha,"[12]; 250 g ai/ha, read-out: Morningglory, Ivy-leaved damage rating (100=total damage to plant; 0=no damage to plant)",0%
